Consider 51 compounds from patent publication US20260234144A1 (TAY THERAPEUTICS LIMITED, priority 2023, published 2026).

A value given as a limit tells only on which side of the number the result lay.

For the assay, the system named is R223X stop codon in the mutated luciferase gene, ADXC8 luciferase reporter cell line. Nature of the assay: cells. Particulars: ADXC8 cells, 24 hours; for Emax / EC (100% of 200 uM G418 response): 24 h; for Emax: read-out: Fold Over Control, maximum fold response relative to 200 μM G418; for EC (100% of 200 uM G418 response): read-out: pC100%, negative logarithm of the concentration giving the same response as 200 μM G418. The format is cell-based.

In the case of `Cc1cc(C)c2c(N)nc(NC3CCN(Cc4nccs4)CC3)nc2n1` [Example 463], the Emax lay within 100 to 3000% and the EC (100% of 200 uM G418 response) lay within 1 to 10 µM.

As for `Cc1cc(C)c2c(N)nc(NCC(O)CN3CCCCC3)nc2n1` (stereo not drawn) [Example 642], the Emax fell in the range of 100 to 3000% and the EC (100% of 200 uM G418 response) was 10 to 100 µM.

Regarding `Cc1cc(C)c2c(N)nc(N[C@@H]3CCN(CCO)C3)nc2n1` [Example 224, (R)-2-(3-((4-amino-5,7-dimethylpyrido[2,3-d]pyrimidin-2-yl)amino)pyrrolidin-1-yl)ethan-1-ol], the Emax fell in the range of 100 to 3000% and the EC (100% of 200 uM G418 response) lay in the range of 10 to 100 µM.

Turning to `CNc1cc(NC2CCN(C)CC2)nc2nc(C)cc(C)c12` [Example 261, N^4,5,7-trimethyl-N^2-(1-methylpiperidin-4-yl)-1,8-naphthyridine-2,4-diamine], the Emax lay within 100 to 3000% and the EC (100% of 200 uM G418 response) lay in the range of 1 to 10 µM.

`CNCCNc1nc(N)c2c(C)cc(C)nc2n1` [Example 285]: the EC (100% of 200 uM G418 response) was in the range of 1 to 10 µM.

Consider `C=C(C)c1ccnc2nc(NC3CCN(C)CC3)nc(N)c12` [Example 245, N^2-(1-methylpiperidin-4-yl)-5-(prop-1-en-2-yl)pyrido[2,3-d]pyrimidine-2,4-diamine], for which the Emax was 0 to 100% and the EC (100% of 200 uM G418 response) is over 100 µM.

For the compound `Cc1cc(C)c2c(N)nc(NC3CCN(Cc4cc(F)cc(F)c4O)CC3)nc2n1` [Example 569], the Emax lay in the range of 100 to 3000% and the EC (100% of 200 uM G418 response) lay in the range of 1 to 10 µM.

Turning to `CNc1nc(NC2CNCC2C#N)nc2nc(C)cc(C)c12` (single isomer, unassigned) [Example 451], the “Fold Over Control” value (maximum fold response relative to 200 μM G418) is on record as “# (Fold over Ctrl ≥ 0 ≤ 1)”. In addition, the pC100% entry (negative logarithm of the concentration giving the same response as 200 μM G418) is listed as “* (pC100 ≤ 4.5)”.

Consider `Cc1cc(C)c2c(N)nc(NC3(C)CNC3)nc2n1` [Example 222], for which the Emax is 0 to 100% and the EC (100% of 200 uM G418 response) was over 31.6 µM.

With `CNc1cc(N[C@H]2CN(C)C[C@@H]2O)nc2nc3c(c(C)c12)CCC3` [Example 425, (3S,4S)-1-methyl-4-((5-methyl-4-(methylamino)-7,8-dihydro-6H-cyclopenta[b][1,8]naphthyridin-2-yl)amino)pyrrolidin-3-ol], the EC (100% of 200 uM G418 response) is 0.1 to 1 µM.

As for `CN1CCC(Nc2nc(N)c3ccc(-c4ccc(S(C)(=O)=O)cc4)nc3n2)CC1` [Example 54], the Emax was 0 to 100% and the EC (100% of 200 uM G418 response) was over 100 µM.

Turning to `CC(=O)Nc1cc(C#N)ccc1CN1CCC(Nc2nc(N)c3c(C)cc(C)nc3n2)CC1` [Example 511, N-(2-((4-((4-amino-5,7-dimethylpyrido[2,3-d]pyrimidin-2-yl)amino)piperidin-1-yl)methyl)-5-cyanophenyl)acetamide], the Emax was 100 to 3000% and the EC (100% of 200 uM G418 response) fell in the range of 1 to 10 µM.

`Cc1cc(C)c2c(N)nc(NC3CCN(Cc4ccccn4)CC3)nc2n1` [Example 471]: the Emax lay within 100 to 3000% and the EC (100% of 200 uM G418 response) was 1 to 10 µM.

On to `CN1CCC(Nc2nc(N)c3ccc(-c4cccc(C#N)c4)nc3n2)CC1` [Example 112], for which the EC (100% of 200 uM G418 response) lay within 1 to 10 µM.

Take `CC(=O)Nc1ccc(-c2ccc3c(N)nc(NC4CCN(C)CC4)nc3n2)cc1` [Example 73]: the Emax fell in the range of 0 to 100% and the EC (100% of 200 uM G418 response) is over 100 µM.

Turning to `CN1CCC(Nc2nc(N)c3ccc(-c4ccccc4C#N)nc3n2)CC1` [Example 118], the EC (100% of 200 uM G418 response) is 10 to 100 µM.

For `Cc1cc(C)c2c(N)nc(NC3CCNC(C)C3)nc2n1` (stereo not drawn) [Example 175], the Emax was 100 to 3000% and the EC (100% of 200 uM G418 response) is 1 to 10 µM.

With `[2H]C([2H])([2H])Nc1nc(N[C@H]2CNC[C@@H]2O)nc2nc3c(c(C)c12)CCC3` [Example 563], the EC (100% of 200 uM G418 response) lay in the range of 0.1 to 1 µM.

On to `Cc1cc(C)c2c(NCC(F)F)nc(N[C@@H]3CCN(C)C3)nc2n1` [Example 636], for which the EC (100% of 200 uM G418 response) lay within 1 to 10 µM.

Consider `Cc1nc2nc(N[C@@H]3CCNC3)nc(N)c2c2c1CCC2` [Example 295], for which the EC (100% of 200 uM G418 response) lay in the range of 0.1 to 1 µM.

Take `CN1CCC(Nc2nc(N)c3ccc(-c4ccc(F)cc4)nc3n2)CC1` [Example 57]: the Emax lay in the range of 100 to 3000% and the EC (100% of 200 uM G418 response) was 1 to 10 µM.

As for `CNc1nc(N[C@H]2CNC[C@H]2CO)nc2nc(C)cc(C)c12` [Example 418], the EC (100% of 200 uM G418 response) fell in the range of 1 to 10 µM.

Take `CN1CCC(Nc2nc(N)c3ccc(-c4cccc(C(=O)N(C)C)c4)nc3n2)CC1` [Example 86]: the Emax is 0 to 100% and the EC (100% of 200 uM G418 response) was over 100 µM.

`Cc1c2c(nc3nc(N[C@H]4CN(C)C[C@@H]4O)nc(N(C)C)c13)CCC2` [Example 547]: the Emax was 100 to 3000% and the EC (100% of 200 uM G418 response) was in the range of 10 to 100 µM.

Take `CNc1c(C)c(N[C@@H]2CCN(C)C2)nc2nc(C)cc(C)c12` [Example 620]: the Emax is 0 to 100% and the EC (100% of 200 uM G418 response) was over 31.6 µM.

In the case of `CNc1cc(N[C@H]2CN(C)C[C@@H]2F)nc2nc3c(c(C)c12)CCC3` [Example 634], the Emax lay in the range of 100 to 3000% and the EC (100% of 200 uM G418 response) fell in the range of 0.1 to 1 µM.

In the case of `CN1CCC(Nc2nc(N)c3ccc(-c4ccccc4Cl)nc3n2)CC1` [Example 115, 7-(2-chlorophenyl)-N^2-(1-methylpiperidin-4-yl) pyrido[2,3-d]pyrimidine-2,4-diamine], the Emax was in the range of 100 to 3000% and the EC (100% of 200 uM G418 response) lay in the range of 1 to 10 µM.

Turning to `Cc1cc(C)c2c(N)nc(NC3CCN(Cc4cn[nH]c4)CC3)nc2n1` [Example 572], the Emax is 100 to 3000% and the EC (100% of 200 uM G418 response) is 1 to 10 µM.

For the compound `Cc1cc(C)c2c(N)nc(N[C@@H]3CN[C@H](C)C3)nc2n1` [Example 348], the Emax was in the range of 100 to 3000% and the EC (100% of 200 uM G418 response) lay within 10 to 100 µM.

Take `Cc1cc(C)c2c(N)nc(NC3CCN(Cc4cccc(C(N)=O)c4)CC3)nc2n1` [Example 484]: the Emax was 100 to 3000% and the EC (100% of 200 uM G418 response) lay within 10 to 100 µM.

Regarding `CNc1nc(N[C@@H]2CCNC2)nc2nc(C)c(Br)c(C)c12` [Example 331], the Emax is 100 to 3000% and the EC (100% of 200 uM G418 response) fell in the range of 0.1 to 1 µM.

Turning to `Cc1cc(C)c2c(N)nc(NCCN3CCC3)nc2n1` [Example 184], the Emax was in the range of 100 to 3000% and the EC (100% of 200 uM G418 response) is 10 to 100 µM.

For `[2H]C([2H])([2H])Nc1nc(N[C@H]2CN(C)C[C@@H]2O)nc2nc3c(c(C)c12)CCC3` [Example 509, (3S,4S)-1-(methyl-d3)-4-((5-methyl-4-((methyl-da)amino)-7,8-dihydro-6H-cyclopenta[5,6]pyrido[2,3-d]pyrimidin-2-yl)amino)pyrrolidin-3-ol], the EC (100% of 200 uM G418 response) lay within 0.01 to 0.1 µM.

Take `Cc1cc(C)c2c(N)nc(NCC3CCNCC3)nc2n1` [Example 141, 5,7-dimethyl-N^2-(piperidin-4-ylmethyl)pyrido[2,3-d]pyrimidine-2,4-diamine]: the Emax is 100 to 3000% and the EC (100% of 200 uM G418 response) was in the range of 10 to 100 µM.

`Cc1cc(C)c2c(N)nc(N[C@H]3CCNC3)nc2n1` [Example 292]: the Emax was in the range of 100 to 3000% and the EC (100% of 200 uM G418 response) was in the range of 1 to 10 µM.

For `CNc1nc(NC2CC3CCC2N3C)nc2nc(C)cc(C)c12` (stereo not drawn) [Example 592], the Emax lay within 100 to 3000% and the EC (100% of 200 uM G418 response) was 1 to 10 µM.

For the compound `COCC1CN(CCCNc2nc(N)c3c(C)cc(C)nc3n2)C1` [Example 188], the Emax was 0 to 100% and the EC (100% of 200 uM G418 response) was over 31.6 µM.

Take `Cc1c2c(nc3nc(NC4CCNCC4)nc(NCCO)c13)CCC2` [Example 510, 2-((5-methyl-2-(piperidin-4-ylamino)-7,8-dihydro-6H-cyclopenta[5,6]pyrido[2,3-d]pyrimidin-4-yl)amino)ethan-1-ol]: the Emax lay within 100 to 3000% and the EC (100% of 200 uM G418 response) lay within 0.1 to 1 µM.

As to `Cc1cc(C)c2c(N)nc(NCCCN3CCCCC3C)nc2n1` (stereo not drawn) [Example 150], the Emax lay within 100 to 3000% and the EC (100% of 200 uM G418 response) was 1 to 10 µM.

In the case of `Cc1cc(C)c2c(N)nc(NCCCN3Cc4ccccc4C3)nc2n1` [Example 194], the Emax is 100 to 3000% and the EC (100% of 200 uM G418 response) lay within 10 to 100 µM.

Take `Cc1c2c(nc3nc(N[C@H]4CNC[C@@H]4O)nc(N(C)C)c13)CCC2` [Example 553]: the Emax is 100 to 3000% and the EC (100% of 200 uM G418 response) was 10 to 100 µM.

On to `CCNc1nc(N[C@H]2CNC[C@@H]2F)nc2nc(C)cc(C)c12` [Example 394], for which the EC (100% of 200 uM G418 response) was in the range of 1 to 10 µM.

For the compound `Cc1cc(C)c2c(N)nc(NC3CCN(Cc4ccncc4Br)CC3)nc2n1` [Example 559], the Emax lay in the range of 100 to 3000% and the EC (100% of 200 uM G418 response) was in the range of 1 to 10 µM.

In the case of `CNc1nc(N[C@@H]2CNC[C@@H]2O)nc2nc3c(c(C)c12)CCC3` [Example 657], the Emax lay within 100 to 3000% and the EC (100% of 200 uM G418 response) lay in the range of 1 to 10 µM.

In the case of `CNc1nc(N[C@H]2CN[C@H](CF)C2)nc2nc(C)cc(C)c12` [Example 413], the EC (100% of 200 uM G418 response) lay in the range of 0.1 to 1 µM.

For the compound `CNc1cc(N[C@H]2CN(C)C[C@@H]2OC)nc2nc3c(c(C)c12)CCC3` [Example 421], the Emax lay within 100 to 3000% and the EC (100% of 200 uM G418 response) is 0.1 to 1 µM.

For the compound `Cc1cc(C)c2c(N)nc(NCCC3CCCN(C)C3)nc2n1` (stereo not drawn) [Example 159], the EC (100% of 200 uM G418 response) was 1 to 10 µM.

For `COCc1cnc2nc(NC3CCN(C)CC3)nc(N)c2c1` [Example 242, 6-(methoxymethyl)-N^2-(1-methylpiperidin-4-yl)pyrido[2,3-d]pyrimidine-2,4-diamine], the Emax fell in the range of 0 to 100% and the EC (100% of 200 uM G418 response) is over 100 µM.

Take `Cc1cc(C)c2c(N)nc(N[C@H]3CCNC[C@H]3F)nc2n1` [Example 587]: the Emax lay within 100 to 3000% and the EC (100% of 200 uM G418 response) lay within 1 to 10 µM.

As to `CCCNc1nc(N[C@@H]2CCN(C)C2)nc2nc(C)cc(C)c12` [Example 390], the Emax is 100 to 3000% and the EC (100% of 200 uM G418 response) lay within 1 to 10 µM.

On to `COc1cccc(CN2CCC(Nc3nc(N)c4c(C)cc(C)nc4n3)CC2)c1` [Example 494], for which the Emax fell in the range of 100 to 3000% and the EC (100% of 200 uM G418 response) lay in the range of 1 to 10 µM.
